Reference: patent US20080009546A1 (Chevron U.S.A. Inc., priority 2005, published 2008)

Test: Dissolving compounds to make 10 mM stock solution
Type: physicochemical
Conditions: deionized water or assay friendly solvents, hot water
Experimental: Following assay establishment, the test compounds were tested for binding affinities. The concentrations selected for the experiments were chosen according to what was found for memantine in our assay. The first task was to dissolve the compounds and make up the 10 mM stock solution for further experiments. Those compounds that were made into salt format were easy to dissolve in deionized water, but the other compounds were difficult to bring into solution. Several “assay friendly” solvents have been tried, such as molecusol, acetic acid and propylene glycol followed by putting the vial into hot water.

O=C(O)C12CC3CC4C5CC(CC41)CC2C5C3 [MDT-17]
dissolution for 10 mM stock solution: did not go into solution, or came out with time
